Source: ChEMBL document CHEMBL1255363, “In vivo efficacy of beta-cyclodextrin derivatives against anthrax lethal toxin” (Antimicrob Agents Chemother, 2008)
Active and inactive are the calls of the source. The rule behind the calls is not given here.

What was measured:
Lethal factor = target: T1, Lethal factor (Bacillus anthracis, UniProt P15917); test: Inhibition of Bacillus anthracis lethal factor
T1 sequence (P15917 whole entry): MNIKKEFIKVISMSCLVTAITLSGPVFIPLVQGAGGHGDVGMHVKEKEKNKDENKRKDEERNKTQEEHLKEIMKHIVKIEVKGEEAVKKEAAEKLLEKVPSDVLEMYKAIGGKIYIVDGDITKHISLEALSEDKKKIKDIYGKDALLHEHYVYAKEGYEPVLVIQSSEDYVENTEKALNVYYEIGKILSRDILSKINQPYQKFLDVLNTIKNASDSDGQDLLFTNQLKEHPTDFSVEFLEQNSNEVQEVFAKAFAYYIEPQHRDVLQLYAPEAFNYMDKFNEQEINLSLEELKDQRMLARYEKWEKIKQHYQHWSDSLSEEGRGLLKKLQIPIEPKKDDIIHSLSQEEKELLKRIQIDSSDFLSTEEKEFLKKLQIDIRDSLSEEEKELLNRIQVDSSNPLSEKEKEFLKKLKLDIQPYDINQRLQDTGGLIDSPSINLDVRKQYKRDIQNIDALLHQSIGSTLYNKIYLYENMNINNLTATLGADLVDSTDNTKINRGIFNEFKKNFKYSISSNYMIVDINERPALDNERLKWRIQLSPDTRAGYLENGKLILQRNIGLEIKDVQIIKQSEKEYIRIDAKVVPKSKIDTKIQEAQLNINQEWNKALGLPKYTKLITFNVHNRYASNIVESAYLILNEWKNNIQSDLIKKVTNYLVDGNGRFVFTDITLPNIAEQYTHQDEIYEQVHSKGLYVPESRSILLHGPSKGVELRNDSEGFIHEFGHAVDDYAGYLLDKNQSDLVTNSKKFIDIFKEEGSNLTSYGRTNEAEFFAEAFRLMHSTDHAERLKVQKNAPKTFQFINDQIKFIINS

Bacillus anthracis [1] = test: Antibacterial activity against Bacillus anthracis infected in Fischer 344 rat assessed as enhancement of survival rate against lethal toxin-mediated toxicity at 0.25 mg, iv coadministered along with 10 ug bacterial lethal factor measured up to 8 hrs; assay type: functional, organism-based
Bacillus anthracis [2] = test: Antibacterial activity against Bacillus anthracis infected in Fischer 344 rat assessed as enhancement of survival rate against lethal toxin-mediated toxicity at 0.085 mg, iv coadministered along with 10 ug bacterial lethal factor measured up to 8 hrs; assay type: functional, organism-based
Bacillus anthracis [3] = test: Antibacterial activity against Bacillus anthracis infected in Fischer 344 rat assessed as enhancement of survival rate against lethal toxin-mediated toxicity at 1.25 mg, iv coadministered along with 10 ug bacterial lethal factor measured up to 8 hrs; assay type: functional, organism-based
Bacillus anthracis [4] = test: Antibacterial activity against Bacillus anthracis infected in Fischer 344 rat assessed as time to death at 0.017 mg, iv coadministered along with 10 ug bacterial lethal factor up to 8 hrs; assay type: functional
Bacillus anthracis [5] = test: Antibacterial activity against Bacillus anthracis Sterne infected in DBA/2 mouse assessed survival rate at 2.5 mg/kg, iv QD for 10 days measured post last dose in presence of 50 mg/kg/day, ip ciprofloxacin; assay type: functional
Bacillus anthracis [6] = test: Antibacterial activity against Bacillus anthracis infected in Fischer 344 rat assessed as enhancement of survival rate against lethal toxin-mediated toxicity at 1.25 mg, iv administered 30 mins prior to 10 ug bacterial lethal factor infusion measured up to 8 hrs; assay type: functional, organism-based
Bacillus anthracis [7] = test: Antibacterial activity against Bacillus anthracis Sterne infected in DBA/2 mouse at 2.5 mg/kg, iv QD for 10 days measured post last dose; assay type: functional, organism-based; design: dose 2.5 mg/kg
Bacillus anthracis [8] = test: Antibacterial activity against Bacillus anthracis infected in Fischer 344 rat assessed as time to death at 0.25 mg, iv coadministered along with 10 ug bacterial lethal factor up to 8 hrs; assay type: functional

Row | SMILES | IC50 (Lethal factor) [µM] | Activity (Bacillus anthracis [1]) | Activity (Bacillus anthracis [2]) | Activity (Bacillus anthracis [3]) | Time (Bacillus anthracis [4]) [min] | Activity (Bacillus anthracis [5]) | Activity (Bacillus anthracis [6]) | Activity (Bacillus anthracis [7]) | Time (Bacillus anthracis [8]) [min]
1 | NCc1cccc(CSC[C@H]2O[C@H]3O[C@H]4[C@H](O)[C@@H](O)[C@H](O[C@H]5[C@H](O)[C@@H](O)[C@H](O[C@H]6[C@H](O)[C@@H](O)[C@H](O[C@H]7[C@H](O)[C@@H](O)[C@H](O[C@H]8[C@H](O)[C@@H](O)[C@H](O[C@H]9[C@H](O)[C@@H](O)[C@H](O[C@H]2[C@H](O)[C@H]3O)O[C@@H]9CSCc2cccc(CN)c2)O[C@@H]8CSCc2cccc(CN)c2)O[C@@H]7CSCc2cccc(CN)c2)O[C@@H]6CSCc2cccc(CN)c2)O[C@@H]5CSCc2cccc(CN)c2)O[C@@H]4CSCc2cccc(CN)c2)c1 | 0.5 | Active | Active | Active | 285 | <=90% | Active | Active | –
2 | NCCCCCCCCSC[C@H]1O[C@H]2O[C@H]3[C@H](O)[C@@H](O)[C@H](O[C@H]4[C@H](O)[C@@H](O)[C@H](O[C@H]5[C@H](O)[C@@H](O)[C@H](O[C@H]6[C@H](O)[C@@H](O)[C@H](O[C@H]7[C@H](O)[C@@H](O)[C@H](O[C@H]8[C@H](O)[C@@H](O)[C@H](O[C@H]1[C@H](O)[C@H]2O)O[C@@H]8CSCCCCCCCCN)O[C@@H]7CSCCCCCCCCN)O[C@@H]6CSCCCCCCCCN)O[C@@H]5CSCCCCCCCCN)O[C@@H]4CSCCCCCCCCN)O[C@@H]3CSCCCCCCCCN | 0.3 | Active | Active | – | 623 | – | Active | – | –
3 | NCc1ccc(CSC[C@H]2O[C@H]3O[C@H]4[C@H](O)[C@@H](O)[C@H](O[C@H]5[C@H](O)[C@@H](O)[C@H](O[C@H]6[C@H](O)[C@@H](O)[C@H](O[C@H]7[C@H](O)[C@@H](O)[C@H](O[C@H]8[C@H](O)[C@@H](O)[C@H](O[C@H]9[C@H](O)[C@@H](O)[C@H](O[C@H]2[C@H](O)[C@H]3O)O[C@@H]9CSCc2ccc(CN)cc2)O[C@@H]8CSCc2ccc(CN)cc2)O[C@@H]7CSCc2ccc(CN)cc2)O[C@@H]6CSCc2ccc(CN)cc2)O[C@@H]5CSCc2ccc(CN)cc2)O[C@@H]4CSCc2ccc(CN)cc2)cc1 | 0.7 | Active | Active | – | 382 | – | Active | – | –
4 | NCCCSC[C@H]1O[C@H]2O[C@H]3[C@H](O)[C@@H](O)[C@H](O[C@H]4[C@H](O)[C@@H](O)[C@H](O[C@H]5[C@H](O)[C@@H](O)[C@H](O[C@H]6[C@H](O)[C@@H](O)[C@H](O[C@H]7[C@H](O)[C@@H](O)[C@H](O[C@H]8[C@H](O)[C@@H](O)[C@H](O[C@H]1[C@H](O)[C@H]2O)O[C@@H]8CSCCCN)O[C@@H]7CSCCCN)O[C@@H]6CSCCCN)O[C@@H]5CSCCCN)O[C@@H]4CSCCCN)O[C@@H]3CSCCCN | 2.9 | inactive | – | Active | – | – | Active | – | 130
